Publication PMC11120720, “Linking Variability in Phytochemical Composition with Safety Profile of Thymus carnosus Boiss. Extracts: Effect of Major Compounds and Evaluation of Markers of Oxidative Stress and Cell Death” (International Journal of Molecular Sciences, 2024)
Read-outs that look alike come from different tables or passages of the source.

What was measured:
HepG2 cells [1] = assay: Mitochondrial membrane potential (JC-1, flow cytometry), HepG2; format: cell-based, human; conditions: positive control, 5 µM
Protocol: (§1) Flow cytometry was used to analyze the effect of T. carnosus extracts on intracellular ROS, modulation of mitochondrial membrane potential (MMP), cell cycle arrest, and apoptotic/necrotic cell death induction.
(§2) Both one- and two-color assays were performed using a BD Accuri™ C6 cytometer (Becton Dickinson, Franklin Lakes, NJ, USA), and 10,000 gated events were collected from each sample [1]. For flow cytometry assays, cells were handled as described previously but seeded at a density 5 × 10^4 cells/mL (750 μL/well) in 12-well plates. Caco-2 and HepG2 cells were incubated for 24 h with the extracts (100 µg/mL) or individual phytochemicals (50 µM) diluted in FBS-free culture media h. After incubation, test solutions were removed; the cells were washed with PBS and detached from the plates using trypsin-EDTA. Once transferred to centrifuge tubes, the cells were centrifuged (bench micro-centrifuge; 3000 rpm; 3 min), the supernatant was discarded, and a new wash cycle was performed. The cells were then equally divided for each assay. A negative control was used in all assays consisting of nonexposed cells incubated only with culture media.
(§3) Mitochondrial membrane potential (MMP) was evaluated using 5,5″,6,6″-tetrachloro-1,1″,3,3″-tetraethylbenzimidazolylcarbocyanineiodide (JC-1). Cells were processed as described for DCFDA but incubated with 200 µL of JC-1 (2 µM, in FBS-free DMEM) for 20 min (37 °C, in the dark).

Caco-2 cells [2] = conditions: positive control, 5 µM
Protocol: as §1, §2, §3

[3] = system: nasopharyngeal carcinoma cells NPC-039; parameters: method as in PMID 34165247; conditions: cited from earlier work
Caco-2 cells [4] = conditions: cited from earlier work
HepG2 cells [5] = conditions: cited from earlier work
HepG2 cells [6] = assay: Intracellular ROS (DCFDA, flow cytometry), HepG2; format: cell-based, human; conditions: compound 50 µM, 24 h
Protocol: (§4) The cells were then equally divided for each assay.
(§5) Intracellular ROS level assessment was performed as described by Silva et al., 2022 [65], using dichlorodihydrofluorescein diacetate (DCFDA). Cells obtained in the previous step were centrifuged, the supernatant discarded, and 200 µL of DCFDA (10 µM in FBS-free DMEM) was added. Cells were incubated for 45 min (37 °C, in the dark), washed to remove excess probe, and resuspended in PBS for data acquisition.

Caco-2 cells [7] = assay: Annexin V-FITC/PI apoptosis/necrosis, Caco-2; format: cell-based; conditions: compound 50 µM, 24 h
Protocol: as §4
(§6) For the assessment of apoptotic/necrotic cell death, an Annexin V-FITC (Thermo Fisher Scientific, Waltham, MA, USA) and propidium iodide (PI; Merck, Darmstadt, Germany) double-staining assay was used to evaluate the apoptotic/necrotic cell death induced by T. carnosus extracts and by individual phytochemicals, as described previously. Briefly, after detachment and washing, the supernatant was discarded, and 200 µL of Annexin V-FITC (1:200 dilution in Annexin-binding buffer [10 mM HEPES sodium salt, 150 mM NaCl, 5 mM KCl, 5 mM MgCl2, and 1.8 mM CaCl2; pH = 7.4]) was added. Cells were incubated for 20 min (room temperature, in the dark). After incubation, 5 µL of propidium iodide (PI; 50 µg/mL) was added, the cells were incubated for 5 min on ice (in the dark), and the data were acquired.

Caco-2 cells [8] = assay: Alamar Blue cell viability assay, Caco-2; format: cell-based, human; conditions: Caco-2; for IC50: Homo sapiens
Protocol: (§7) The safety profile of T. carnosus AD and HE extracts was evaluated in Caco-2 and HepG2 cells using an Alamar Blue® (Invitrogen; Alfagene, Lisboa, Portugal) assay. An initial screening was performed for all extracts at concentrations ranging between 100 and 1000 µg/mL. Due to the higher toxicity of the HE extracts, which was previously described for various extracts of Thymus species using the same extraction methods (e.g., T. mastichina and Thymus zygis), a different set of concentrations was used for the HE extracts (between 100 and 300 µg/mL for Caco-2 cells and 50 and 150 µg/mL for HepG2 cells). Figure 1 presents the data related to the cell viability assays in Caco-2 (panels A–E) and HepG2 cells (panels F–J) exposed to T. carnosus extracts, as indicated.
(§8) The safety profile of T. carnosus extracts was assessed in Caco-2 and HepG2 cells. Caco-2 (human colon adenocarcinoma cell line) were obtained from CLS (Cell Lines Service, Eppelheim, Germany), and HepG2 (human hepatocellular carcinoma cell line) were obtained from ATCC (American Type Culture Collection, Manassas, VA, USA).
(§9) Cell culture maintenance, handling, subculturing, and seeding were performed as described by Silva et al., 2020 [5], and cell viability was assessed using an Alamar Blue® assay, as described by Andreani et al., 2014 [64]. Concentrations ranged between 100 and 1000 µg/mL for AD extracts in both cell lines and 100 to 300 µg/mL or 50 to 150 µg/mL for HE extracts in Caco-2 and HepG2 cells, respectively. The effect of individual compounds on cell viability was assessed for concentrations ranging from 50 to 300 µM. All test solutions were prepared by diluting the samples in FBS-free culture media from the stock solutions described in Section 3.2, just prior to being used.
(§10) The results are presented as mean ± SD of at least three independent assays. The calculation of IC50 values was performed as described by Silva et al., 2020 [5]. Data analysis, graphical design, and statistical analysis were performed using Microsoft Office Excel (Professional Plus 2019; Microsoft Corporation, Washington, DC, USA) and GraphPad Prism (Version 8; GraphPad Software Inc., San Diego, CA, USA). Flow cytometry data analysis was performed using BD Accuri™ C6 Software, version 1.0.264.21 (Becton Dickinson, San Diego, CA, USA).

HepG2 cells [9] = assay: Alamar Blue cell viability assay, HepG2; format: cell-based, human
Protocol: as §7, §8, §9, §10

[10] = system: nasopharyngeal carcinoma cells NPC-BM; parameters: method as in PMID 34165247; conditions: cited from earlier work
HepG2 cells [11] = assay: Annexin V-FITC/PI apoptosis/necrosis, HepG2; format: cell-based, human; conditions: compound 50 µM, 24 h
Protocol: as §4, §6

Caco-2 cells [12] = assay: Cell cycle arrest (PI, flow cytometry), Caco-2; format: cell-based; conditions: compound 50 µM, 24 h
Protocol: as §4
(§11) Cell cycle arrest assessment was performed as described in [1]. Cells were processed as described above until cell detachment and centrifuged, after which the second washing step was performed with ice-cold PBS (0 °C). After centrifugation, the supernatant was discarded, and cells were fixed with 500 µL of ethanol:PBS solution (70:30, % v/v, previously cooled at −20 °C) for at least 4 h at −20 °C. After fixation, two washing cycles were performed: the first with ice-cold PBS (0 °C) and the second with room-temperature PBS, followed by the addition of 200 µL of a PBS solution containing PI (50 µg/mL), RNAse A (50 µg/mL), and Triton X-100 (0.1%). Cells were incubated for 30 min at 37 °C, and then cells were washed once with PBS to remove the staining solution. After resuspension in PBS, the data were acquired.

HepG2 cells [13] = assay: Cell cycle arrest (PI, flow cytometry), HepG2; format: cell-based, human; conditions: compound 50 µM, 24 h
Protocol: as §4, §11

Caco-2 cells [14] = assay: Intracellular ROS (DCFDA, flow cytometry), Caco-2; format: cell-based; conditions: compound 50 µM, 24 h
Protocol: as §4, §5

[15] = system: hepatocarcinoma cells (HuH7); parameters: method as in PMID 20415421; conditions: 20-80 µM; cited from earlier work
[16] = parameters: method as in PMID 31344882, PMID 26042707; conditions: cited from earlier work

## N#CC(C#N)=NNc1ccc(OC(F)(F)F)cc1 [FCCP, carbonyl cyanide p-trifluoromethoxyphenylhydrazone]
HepG2 cells [1]
  JC-1 FL2/FL1 ratio normalized by negative control, HepG2: 0.10 ± 0.01
  reduction in MMP, HepG2: ~ 90%
Caco-2 cells [2]
  JC-1 FL2/FL1 ratio normalized by negative control, Caco-2: 0.06 ± 0.01
  reduction in MMP, Caco-2: ~ 94%

## O=c1cc(-c2ccc(O)c(O)c2)oc2cc(O[C@@H]3O[C@H](CO)[C@@H](O)[C@H](O)[C@H]3O)cc(O)c12 [Luteolin-7-O-glucoside, luteolin-7-O-glucoside]
[3]; 20, 40 and 80 µM
  MMP modulation, NPC-039: MMP depolarization
[3]
  cell cycle effect, NPC-039: cell cycle arrest in the S and G2/M phases
Caco-2 cells [4]; read-out: concentration reducing Caco-2 cell viability to 50% of control, 48 h
  IC50: ~55 µM
HepG2 cells [5]; read-out: concentration reducing HepG2 cells' viability to ~50%
  IC50: 44.6 µM
HepG2 cells [6]
  change in intracellular ROS, HepG2: significant (p < 0.05) increase in intracellular HepG2 ROS levels
Caco-2 cells [7]
  cell death induction, Caco-2: did not induce cell death
Caco-2 cells [8]
  concentrations reducing Caco-2 cell viability (p < 0.05): ≥ 75 µM
HepG2 cells [9]; 300 µM, 48 h
  reduction in HepG2 cell viability: ~ 30%
HepG2 cells [9]; 48 h exposure
  concentrations giving significant effect on HepG2 cell viability: ≥ 100 µM
[10]; 20, 40 and 80 µM
  MMP modulation, NPC-BM: MMP depolarization
[10]
  cell cycle effect, NPC-BM: cell cycle arrest in the S and G2/M phases
HepG2 cells [11]
  cell death induction, HepG2: did not induce cell death
Caco-2 cells [12]
  cell cycle effect, Caco-2: cell cycle arrest in G0/G1
HepG2 cells [13]
  cell cycle effect, HepG2: induced cell cycle arrest in both cell lines but in different phases

## CC1(C)CC[C@]2(C(=O)O)CC[C@]3(C)C(=CC[C@@H]4[C@@]5(C)CC[C@H](O)C(C)(C)[C@@H]5CC[C@]43C)[C@@H]2C1 [Oleanolic acid, oleanolic acid]
Caco-2 cells [4]; 24 h
  concentrations reducing Caco-2 cell viability: ≥ 5 µM
HepG2 cells [5]; 48 h
  concentrations reducing HepG2 cell viability: ≥ 2 µM
HepG2 cells [5]; read-out: IC50, HepG2 cells, 72 h
  IC50: > 100 µM
Caco-2 cells [14]
  change in intracellular ROS, Caco-2: increase in ROS
HepG2 cells [6]
  change in intracellular ROS, HepG2: significant (p < 0.05) increase in intracellular HepG2 ROS levels
Caco-2 cells [7]
  percentage of cells in late apoptosis, Caco-2: ~ 29%
  percentage of cells in necrosis, Caco-2: ~ 50%
Caco-2 cells [8]; 24 h exposure, read-out: IC50 (µM) - Caco-2 cells: 24 h
  IC50: 78.5 ± 3.57 µM
Caco-2 cells [8]; 48 h exposure, read-out: IC50 (µM) - Caco-2 cells: 48 h
  IC50: 45.9 ± 2.47 µM
HepG2 cells [9]; Homo sapiens, HepG2, 24 h exposure, read-out: IC50 (µM) - HepG2 cells: 24 h
  IC50: 150 ± 7.66 µM
HepG2 cells [11]
  cell death induction, HepG2: slight reduction in the percentage of healthy cells
[15]
  MMP modulation, HuH7: reduce MMP
[16]
  lipophilicity: high lipophilicity
  water solubility: poor water solubility
Caco-2 cells [12]
  cell cycle effect, Caco-2: cell cycle arrest in G0/G1

## COc1cc(/C=C/C(=O)CC(=O)/C=C/c2ccc(O)c(OC)c2)ccc1O [curcumin]
HepG2 cells [5]; 27-108 µM
  MMP modulation, HepG2: mitochondrial membrane hyperpolarization in HepG2 cells, followed by depolarization

## O=c1c(O[C@@H]2O[C@H](CO)[C@@H](O)[C@H](O)[C@H]2O)c(-c2ccc(O)c(O)c2)oc2cc(O)cc(O)c12 [quercetin-3-O-glucoside]
Caco-2 cells [4]
  cytotoxicity in Caco-2 cells relative to quercetin aglycone: lower cytotoxicity in Caco-2 cells than aglycone

## O=C(O)[C@H]1O[C@@H](Oc2c(-c3ccc(O)c(O)c3)oc3cc(O)cc(O)c3c2=O)[C@H](O)[C@@H](O)[C@@H]1O [quercetin-3-O-glucuronide]
Caco-2 cells [4]
  cytotoxicity in Caco-2 cells relative to quercetin aglycone: lower cytotoxicity in Caco-2 cells than aglycone
